The target of data set [1] is T1, NaV1.5 (Homo sapiens, UniProt Q14524).
T1 construct: expression vector containing the full-length cDNA coding for the desired human sodium channel α-subunit; expressed in transfected cells; host or cells: HEK-293
The data set can be described thus: Patch voltage clamp electrophysiology assay (EP), NaV1.5 in HEK-293 cells. Type of data set: cell-based. The settings on record: HEK-293, β1 coexpressed, held at -60 mV (inactivated state). From the text:
(§1) Electrophysiological Assay (EP) (In Vitro Assay)
(§2) Patch voltage clamp electrophysiology allows for the direct measurement and quantification of block of voltage-gated sodium channels (NaV's), and allows the determination of the time- and voltage-dependence of block which has been interpreted as differential binding to the resting, open, and inactivated states of the sodium channel (Hille, B., Journal of General Physiology (1977), 69: 497-515).
(§3) The following patch voltage clamp electrophysiology studies were performed on representative compounds of the invention using human embryonic kidney cells (HEK), permanently transfected with an expression vector containing the full-length cDNA coding for the desired human sodium channel α-subunit, grown in culture media containing 10% FBS, 1% PSG, and 0.5 mg/mL G418 at 37° C. with 5% CO2. […] NaV1.7 and NaV1.5 cDNAs (NM_002977 and AC137587; SCN5A, respectively) were stably expressed in HEK-293 cells. The β1 subunit was coexpressed in both the NaV1.7 and NaV1.5 cell lines.
(§4) Sodium currents were measured using the patch clamp technique in the whole-cell configuration using either a PatchXpress automated voltage clamp or manually using an Axopatch 200B (Axon Instruments) or Model 2400 (A-M systems) amplifier. The manual voltage clamp protocol was as follows: Borosilicate glass micropipettes were fire-polished to a tip diameter yielding a resistance of 2-4 Mohms in the working solutions. The pipette was filled with a solution comprised of: 5 mM NaCl, 10 mM CsCl, 120 mM CsF, 0.1 mM CaCl2, 2 mM MgCl2, 10 mM HEPES, 10 mM EGTA; and adjusted to pH 7.2 with CsOH. The external solution had the following composition: 140 mM NaCl, 5 mM KCl, 2 mM CaCl2, 1 mM MgCl2, 10 mM HEPES; and adjusted to pH 7.4 with NaOH. In some studies, the external sodium was reduced by equimolar replacement with choline. Osmolarity in the CsF internal and NaCl external solutions was adjusted to 300 mOsm/kg and 310 mOsm/kg with glucose, respectively. All recordings were performed at ambient temperature in a bath chamber with a volume of 150 μL. Control sodium currents were measured in 0.5% DMSO. Controls and representative compounds of the invention were applied to the recording chamber through a 4-pinch or 8-pinch valve bath perfusion system manufactured by ALA Scientific Instruments.
(§5) Currents were recorded at 40 kHz sampling frequency, filtered at […], and stored using a Digidata-1322A analogue/digital interface with the pClamp software (Axon Instruments). Series resistance compensation was applied (60-80%). […] All statistics in this study are given as mean±SD.
(§6) The membrane potential was maintained at a voltage where inactivation of the channel is complete (which was −60 mV for both NaV1.7 and NaV1.5). The voltage is then stepped back to a very negative (Vhold=[…]) voltage for 20 ms and then a test pulse is applied to quantify the compound block. The 20 ms brief repolarization was long enough for compound-free channels to completely recover from fast inactivation, but the compound-bound channels recovered more slowly such that negligible recovery could occur during this interval. The percent decrease in sodium current following wash-on of compound was taken as the percent block of sodium channels.

Data set [2] has as its target T2, NaV1.7 (Homo sapiens, UniProt Q15858).
T2 construct: expression vector containing the full-length cDNA coding for the desired human sodium channel α-subunit; expressed in transfected cells; host or cells: HEK-293
The data set can be described thus: Patch voltage clamp electrophysiology assay (EP), NaV1.7 in HEK-293 cells. The format is cell-based. Particulars: HEK-293, β1 coexpressed, held at -60 mV (inactivated state).
Source text: as §1, §2, §3, §4, §5, §6

The target in data set [3] is T3, hNav1.7 (Homo sapiens, UniProt Q15858).
T3 construct: expressed in transfected cells
Kind of data set: Tritiated sulfonamide competitive binding to membranes from cells expressing hNav1.7 and the β1 subunit (LBA). The settings on record: competition with 100 pM [3H]compound, 18 h, room temperature; read-out: Nav1.7 (LBA). The method, then:
Tritiated Sulfonamide Binding to Membranes Isolated from Cells that Heterologously Express hNav1.7 and the β1 Subunit
Preparation of membranes containing recombinantly expressed sodium channels: Frozen recombinant cell pellets were thawed on ice and diluted to 4 times the cell pellet weight with ice cold 50 mM Tris HCl, pH 7.4 buffer. The cell suspensions were homogenized on ice using a motorized glass dounce homogenizer. Homogenates were further diluted 8.4 times with ice cold 50 mM Tris HCl, pH 7.4 buffer and then centrifuged at 200×g at 4° C. for 15 min. The supernatants were collected and centrifuged at 10000×g at 4° C. for 50 min. The pellets were then re-suspended in 100 mM NaCl, 20 mM Tris HCl, pH 7.4 buffer containing 1% v/v protease inhibitors (Calbiochem) and re-homogenized on ice. The homogenized membranes were then processed through a syringe equipped with a 26 gauge needle. Protein concentrations were determined by Bradford Assay and the membranes were stored at −80° C.
Saturation experiments. A competitive NaV1.7 inhibitor having a methyl group was tritiated. Three tritiums were incorporated in place of methyl hydrogens to generate [^3H]compound. Binding of this radioligand was preformed in 5 mL borosilicate glass test tubes at room temperature. Binding was initiated by adding membranes to increasing concentrations of [^3H]compound in 100 mM NaCl, 20 mM Tris HCl, pH 7.4 buffer containing 0.01% w/v bovine serum albumin (BSA) for 18 h. Non-specific binding was determined in the presence of 1 μM unlabelled compound. After 18 h, the reactants were filtered through GF/C glass fiber filters presoaked in 0.5% w/v polyethylene imine. Filters were washed with 15 mL ice cold 100 mM NaCl, 20 mM Tris HCl, pH 7.4 buffer containing 0.25% BSA to separate bound from free ligand. [^3H]compound bound to filters was quantified by liquid scintillation counting.
Binding reactions were performed in 96-well polypropylene plates at room temperature for 18 h. In 360 μL, membranes were incubated with 100 pM [^3H]compound and increasing concentrations of Test Compound. Non-specific binding was defined in the presence of 1 μM unlabelled compound. Reactions were transferred and filtered through 96-well glass fiber/C filter plates presoaked with 0.5% polyethylene imine. The filtered reactions were washed 5 times with 200 μL ice cold buffer containing 0.25% BSA. Bound radioactivity was determined by liquid scintillation counting.
Data Analysis: For saturation experiments, non-specific binding was subtracted from total binding to provide specific binding and these values were recalculated in terms of pmol ligand bound per mg protein. Saturation curves were constructed and dissociation constants were calculated using the single site ligand binding model: Beq=(Bmax*X)/(X+Kd), where Beq is the amount of ligand bound at equilibrium, Bmax is the maximum receptor density, Kd is the dissociation constant for the ligand, and X is the free ligand concentration. For competition studies percent inhibition was determined and IC50 values were calculated using a 4 parameter logistic model (% inhibition=(A+((B−A)/(1+((x/C)^D)))) using XLfit, where A and B are the maximal and minimum inhibition respectively, C is the IC50 concentration and D is the (Hill) slope.

SMILES strings stand for the structures. pIC50: −log10 of the molar value.

Among the data in patent US10899732B2, “Substituted benzamides useful as sodium channel blockers” (GENENTECH, INC., priority 2015, dated 2021) are IC50 values, retold here.

T2 sequence (Q15858 1-1977 isoform Q15858-3): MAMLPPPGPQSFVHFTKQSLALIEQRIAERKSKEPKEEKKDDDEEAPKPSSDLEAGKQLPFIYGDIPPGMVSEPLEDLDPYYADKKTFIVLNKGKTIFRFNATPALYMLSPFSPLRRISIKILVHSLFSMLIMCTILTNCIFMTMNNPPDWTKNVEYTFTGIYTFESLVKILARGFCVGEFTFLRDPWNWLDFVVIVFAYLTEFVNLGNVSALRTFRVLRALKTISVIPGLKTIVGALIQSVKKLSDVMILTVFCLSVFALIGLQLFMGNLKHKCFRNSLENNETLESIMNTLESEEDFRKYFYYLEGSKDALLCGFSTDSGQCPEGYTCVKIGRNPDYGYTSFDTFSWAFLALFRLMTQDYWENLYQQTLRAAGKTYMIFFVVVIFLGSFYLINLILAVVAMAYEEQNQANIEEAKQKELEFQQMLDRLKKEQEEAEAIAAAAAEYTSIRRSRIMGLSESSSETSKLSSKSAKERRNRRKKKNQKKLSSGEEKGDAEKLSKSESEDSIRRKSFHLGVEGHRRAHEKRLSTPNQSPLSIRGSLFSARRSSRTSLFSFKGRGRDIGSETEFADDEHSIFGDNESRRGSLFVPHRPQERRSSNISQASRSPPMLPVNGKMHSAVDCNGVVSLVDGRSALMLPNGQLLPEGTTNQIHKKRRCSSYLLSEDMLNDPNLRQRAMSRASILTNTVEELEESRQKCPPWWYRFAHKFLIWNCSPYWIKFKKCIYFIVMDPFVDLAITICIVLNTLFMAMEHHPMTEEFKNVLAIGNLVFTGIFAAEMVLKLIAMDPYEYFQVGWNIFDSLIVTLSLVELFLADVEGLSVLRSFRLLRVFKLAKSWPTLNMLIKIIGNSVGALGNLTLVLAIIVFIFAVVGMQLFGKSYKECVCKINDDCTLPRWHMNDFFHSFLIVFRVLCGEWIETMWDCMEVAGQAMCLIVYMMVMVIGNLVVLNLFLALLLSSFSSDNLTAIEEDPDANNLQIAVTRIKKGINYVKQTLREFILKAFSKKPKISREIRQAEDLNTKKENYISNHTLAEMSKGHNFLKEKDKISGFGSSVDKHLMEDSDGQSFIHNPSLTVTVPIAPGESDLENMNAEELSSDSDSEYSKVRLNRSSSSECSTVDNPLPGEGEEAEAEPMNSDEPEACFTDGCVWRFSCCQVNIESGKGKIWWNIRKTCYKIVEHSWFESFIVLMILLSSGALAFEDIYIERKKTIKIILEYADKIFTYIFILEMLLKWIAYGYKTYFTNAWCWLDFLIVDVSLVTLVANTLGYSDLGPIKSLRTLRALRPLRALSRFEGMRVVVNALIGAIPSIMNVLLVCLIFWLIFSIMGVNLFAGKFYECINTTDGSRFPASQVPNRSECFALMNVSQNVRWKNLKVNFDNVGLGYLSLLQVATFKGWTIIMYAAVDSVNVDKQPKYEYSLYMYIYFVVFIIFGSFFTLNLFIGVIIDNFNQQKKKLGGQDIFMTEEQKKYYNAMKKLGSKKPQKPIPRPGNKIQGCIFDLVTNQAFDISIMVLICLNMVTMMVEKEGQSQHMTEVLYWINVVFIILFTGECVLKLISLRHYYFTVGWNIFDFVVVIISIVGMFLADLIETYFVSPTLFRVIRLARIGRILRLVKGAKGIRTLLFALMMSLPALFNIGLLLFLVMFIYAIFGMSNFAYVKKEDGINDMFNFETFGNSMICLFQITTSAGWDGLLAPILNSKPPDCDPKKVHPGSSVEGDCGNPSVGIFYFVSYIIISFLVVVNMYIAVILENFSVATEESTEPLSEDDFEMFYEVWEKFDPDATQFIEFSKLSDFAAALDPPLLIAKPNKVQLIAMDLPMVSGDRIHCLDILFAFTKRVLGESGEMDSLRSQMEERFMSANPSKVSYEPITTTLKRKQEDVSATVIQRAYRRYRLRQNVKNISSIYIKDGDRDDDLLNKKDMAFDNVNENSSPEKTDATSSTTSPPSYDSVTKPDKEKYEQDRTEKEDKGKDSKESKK
T2 sequence (Q07699 19-218 partner): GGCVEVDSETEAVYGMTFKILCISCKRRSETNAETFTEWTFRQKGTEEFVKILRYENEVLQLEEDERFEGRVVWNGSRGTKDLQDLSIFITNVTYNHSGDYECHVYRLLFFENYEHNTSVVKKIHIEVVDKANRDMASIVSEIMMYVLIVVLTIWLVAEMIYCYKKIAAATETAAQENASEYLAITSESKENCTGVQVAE
T3 sequence (Q15858 1-1977 isoform Q15858-3): as the sequence (Q15858 1-1977 isoform Q15858-3) above
T3 sequence (Q07699 19-218 partner): as the sequence (Q07699 19-218 partner) above
T1 sequence (Q14524 whole entry): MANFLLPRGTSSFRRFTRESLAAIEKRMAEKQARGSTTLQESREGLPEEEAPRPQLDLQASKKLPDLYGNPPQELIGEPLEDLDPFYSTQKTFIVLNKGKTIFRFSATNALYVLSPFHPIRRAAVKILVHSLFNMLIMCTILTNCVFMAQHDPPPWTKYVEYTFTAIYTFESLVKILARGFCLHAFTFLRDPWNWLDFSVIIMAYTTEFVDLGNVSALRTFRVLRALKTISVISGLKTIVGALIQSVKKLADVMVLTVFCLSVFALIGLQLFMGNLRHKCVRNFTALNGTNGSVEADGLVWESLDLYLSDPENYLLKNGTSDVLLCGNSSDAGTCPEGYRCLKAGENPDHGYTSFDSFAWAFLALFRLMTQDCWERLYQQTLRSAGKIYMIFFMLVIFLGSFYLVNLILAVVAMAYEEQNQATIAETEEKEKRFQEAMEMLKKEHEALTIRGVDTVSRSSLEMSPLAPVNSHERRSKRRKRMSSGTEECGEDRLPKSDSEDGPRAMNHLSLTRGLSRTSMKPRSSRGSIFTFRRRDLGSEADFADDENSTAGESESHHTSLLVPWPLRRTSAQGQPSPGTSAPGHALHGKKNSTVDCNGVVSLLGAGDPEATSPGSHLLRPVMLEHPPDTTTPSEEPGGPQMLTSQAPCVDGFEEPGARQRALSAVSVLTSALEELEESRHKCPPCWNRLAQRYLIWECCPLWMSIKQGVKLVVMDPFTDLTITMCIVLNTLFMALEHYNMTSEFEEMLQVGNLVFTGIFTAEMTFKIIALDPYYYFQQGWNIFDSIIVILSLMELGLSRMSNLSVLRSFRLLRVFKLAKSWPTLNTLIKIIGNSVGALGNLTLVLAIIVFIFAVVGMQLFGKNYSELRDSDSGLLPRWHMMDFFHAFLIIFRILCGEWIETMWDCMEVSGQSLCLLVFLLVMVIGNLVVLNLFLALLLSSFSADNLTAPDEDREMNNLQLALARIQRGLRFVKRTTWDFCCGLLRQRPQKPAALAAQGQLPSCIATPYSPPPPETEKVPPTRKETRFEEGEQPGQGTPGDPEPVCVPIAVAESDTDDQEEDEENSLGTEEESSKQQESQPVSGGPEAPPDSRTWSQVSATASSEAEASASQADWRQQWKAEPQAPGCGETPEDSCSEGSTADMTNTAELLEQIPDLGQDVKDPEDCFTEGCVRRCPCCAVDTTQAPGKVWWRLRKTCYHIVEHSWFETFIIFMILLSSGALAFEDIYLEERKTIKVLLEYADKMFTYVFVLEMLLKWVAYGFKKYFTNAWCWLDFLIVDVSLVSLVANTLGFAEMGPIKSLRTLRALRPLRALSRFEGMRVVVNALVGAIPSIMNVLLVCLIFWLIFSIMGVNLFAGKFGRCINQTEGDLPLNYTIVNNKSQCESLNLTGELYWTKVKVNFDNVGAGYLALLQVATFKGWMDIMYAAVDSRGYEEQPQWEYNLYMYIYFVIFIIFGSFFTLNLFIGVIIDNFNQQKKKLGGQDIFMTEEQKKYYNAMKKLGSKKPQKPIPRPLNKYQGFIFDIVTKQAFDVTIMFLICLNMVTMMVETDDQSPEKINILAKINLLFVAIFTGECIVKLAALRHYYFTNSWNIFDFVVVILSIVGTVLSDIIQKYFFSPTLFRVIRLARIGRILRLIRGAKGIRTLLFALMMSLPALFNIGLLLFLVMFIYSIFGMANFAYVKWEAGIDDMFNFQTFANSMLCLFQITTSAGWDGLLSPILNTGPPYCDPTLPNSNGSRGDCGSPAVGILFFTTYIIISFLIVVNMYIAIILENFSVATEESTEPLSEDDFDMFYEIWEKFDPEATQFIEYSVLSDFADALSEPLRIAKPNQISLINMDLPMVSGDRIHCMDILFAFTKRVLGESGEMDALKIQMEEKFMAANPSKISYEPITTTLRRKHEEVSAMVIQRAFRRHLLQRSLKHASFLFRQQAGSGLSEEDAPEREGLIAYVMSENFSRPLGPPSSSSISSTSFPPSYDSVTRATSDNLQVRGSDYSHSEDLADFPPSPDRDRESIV

Consider `Cc1nn(C2CCN(Cc3cc(C(F)(F)F)cc(Cl)c3F)CC2)c2cc(F)c(C(=O)NS(C)(=O)=O)cc12` [Example 1, 1-(1-(3-chloro-2-fluoro-5-(trifluoromethyl)benzyl)piperidin-4-yl)-6-fluoro-3-methyl-N-(methylsulfonyl)-1H-indazole-5-carboxamide 2,2,2-trifluoroacetate], for which the pIC50 is 4.66 in data set [1], 6.17 in data set [2] and 7.47 in data set [3].
On to `Cc1nn(C2CCN(Cc3cc(C(F)(F)F)cc(Cl)c3F)CC2)c2cc(F)c(C(=O)NS(=O)(=O)C3CC3)cc12` [Example 2, 1-(1-(3-chloro-2-fluoro-5-(trifluoromethyl)benzyl)piperidin-4-yl)-N-(cyclopropylsulfonyl)-6-fluoro-3-methyl-1H-indazole-5-carboxamide 2,2,2-trifluoroacetate], for which the results for the pIC50 in data set [1], in data set [2] and in data set [3] were 5.31, 7.07 and 7.89, respectively.
For `Cc1nn(C2CCN(Cc3cc(C(F)(F)F)cc(Cl)c3F)CC2)c2cc(F)c(C(=O)NS(=O)(=O)N3CCC3)cc12` [Example 3, N-(azetidin-1-ylsulfonyl)-1-(1-(3-chloro-2-fluoro-5-(trifluoromethyl)benzyl)piperidin-4-yl)-6-fluoro-3-methyl-1H-indazole-5-carboxamide 2,2,2-trifluoroacetate], in that order: 5.13, 6.60 and 7.48.
Consider `Cc1nn(C2CCN(Cc3cc(Cl)cc(OC(F)(F)F)c3)CC2)c2cc(F)c(C(=O)NS(C)(=O)=O)cc12` [Example 4, 1-(1-(3-chloro-5-(trifluoromethoxy)benzyl)piperidin-4-yl)-6-fluoro-3-methyl-N-(methylsulfonyl)-1H-indazole-5-carboxamide 2,2,2-trifluoroacetate], for which the results for the pIC50 in data set [1], in data set [2] and in data set [3] were 4.59, 6.38 and 7.62, respectively.
`Cc1nn(C2CCN(Cc3cc(Cl)cc(OC(F)(F)F)c3)CC2)c2cc(F)c(C(=O)NS(=O)(=O)C3CC3)cc12` [Example 5, 1-(1-(3-chloro-5-(trifluoromethoxy)benzyl)piperidin-4-yl)-N-(cyclopropylsulfonyl)-6-fluoro-3-methyl-1H-indazole-5-carboxamide]: the values for the pIC50 in data set [1], in data set [2] and in data set [3] were 5.62, 7.29 and 8.22, respectively.
On the same counts, the results for `Cc1nn(C2CCN(Cc3cc(Cl)cc(Cl)c3)CC2)c2cc(F)c(C(=O)NS(=O)(=O)C3CC3)cc12` [Example 6, N-(cyclopropylsulfonyl)-1-(1-(3,5-dichlorobenzyl)piperidin-4-yl)-6-fluoro-3-methyl-1H-indazole-5-carboxamide 2,2,2-trifluoroacetate] are 5.15, 7.14 and 7.85.
Take `Cc1nn(-c2ccc3c(c2)CCCC3)c2cc(F)c(C(=O)NS(=O)(=O)N3CCC3)cc12` [Example 25, N-(azetidin-1-ylsulfonyl)-6-fluoro-3-methyl-1-(5,6,7,8-tetrahydronaphthalen-2-yl)-1H-indazole-5-carboxamide]: the values for the pIC50 in data set [2] and in data set [3] were 7.36 and 6.59, respectively.
For `Cc1nn(-c2ccc3c(c2)CCCC3)c2cc(F)c(C(=O)NS(C)(=O)=O)cc12` [Example 26, 6-fluoro-3-methyl-N-(methylsulfonyl)-1-(5,6,7,8-tetrahydronaphthalen-2-yl)-1H-indazole-5-carboxamide], in that order: 6.80 and 7.00.
For `Cc1nn(C2CCC(C(C)(C)C)CC2)c2cc(F)c(C(=O)NS(=O)(=O)N3CCC3)cc12` (stereo not shown) [Example 27, N-(azetidin-1-ylsulfonyl)-1-(4-(tert-butyl)cyclohexyl)-6-fluoro-3-methyl-1H-indazole-5-carboxamide], in that order: 6.85 and 7.64.
As for `Cc1nn(C2CCC(C(C)(C)C)CC2)c2cc(F)c(C(=O)NS(C)(=O)=O)cc12` (stereo not shown) [Example 28, 1-(4-(tert-butyl)cyclohexyl)-6-fluoro-3-methyl-N-(methylsulfonyl)-1H-indazole-5-carboxamide], the pIC50 is 6.49 in data set [2] and 7.33 in data set [3].
For `Cc1nn(C2CCC(C)CC2)c2cc(F)c(C(=O)NS(=O)(=O)N3CCC3)cc12` (stereo not shown) [Example 29, N-(azetidin-1-ylsulfonyl)-6-fluoro-3-methyl-1-(4-methylcyclohexyl)-1H-indazole-5-carboxamide], in that order: 6.00 and 6.46.
Turning to `Cc1nn(C2CCC(C(C)C)CC2)c2cc(F)c(C(=O)NS(=O)(=O)N3CCC3)cc12` (stereo not shown) [Example 30, N-(azetidin-1-ylsulfonyl)-6-fluoro-1-(4-isopropylcyclohexyl)-3-methyl-1H-indazole-5-carboxamide], the values for the pIC50 in data set [2] and in data set [3] were 7.41 and 7.60, respectively.
On the same counts, the results for `Cc1nn(C2CCC(C)CC2)c2cc(F)c(C(=O)NS(C)(=O)=O)cc12` (stereo not shown) [Example 31, 6-fluoro-3-methyl-1-(4-methylcyclohexyl)-N-(methylsulfonyl)-1H-indazole-5-carboxamide] are 5.70 and 6.47.
Molecule `Cc1nn(C2CCOCC2)c2cc(F)c(C(=O)NS(=O)(=O)N3CCC3)cc12` [Example 32, N-(azetidin-1-ylsulfonyl)-6-fluoro-3-methyl-1-(tetrahydro-2H-pyran-4-yl)-1H-indazole-5-carboxamide] showed a pIC50 in data set [1] (human, pH 7.4) of no more than 4.52.
Take `Cc1nn(C2CCOCC2)c2cc(F)c(C(=O)NS(C)(=O)=O)cc12` [Example 34, 6-fluoro-3-methyl-N-(methylsulfonyl)-1-(tetrahydro-2H-pyran-4-yl)-1H-indazole-5-carboxamide]: the pIC50 in data set [1] (human, pH 7.4) was no more than 4.52.
